{"source": "patent US12185720B2", "about": "“Chitooligosaccharides and methods for use in enhancing plant growth” (NOVOZYMES BIOAG A/S, priority 2011, dated 2025)", "assay_type_in_all_cases": "in vivo", "key": {"corn [1]": {"system": "corn", "assay": "Corn field trials, foliar application, grain yield"}, "Cotton plants": {"system": "Cotton plants", "assay": "Cotton foliar experiment (greenhouse)", "conditions": "sprayed at V4 stage with 10^−8 M; grown up to 4 weeks; FIG. 9", "description": "Cotton seeds were planted and grown to V4 stage (4 leaved stages) and then were sprayed with 10^−8 M of the LCO illustrated in FIG. 2b (also referred to in the examples as the “Pea LCO”) and the pea CO and then left to grow up to 4 weeks with occasional watering with Hoagland solution. Control plants were sprayed with water."}, "[2]": {"system": "Soybean seeds (Pioneer 9oM80)", "assay": "Soybean seed treatment, radicle length", "conditions": "after 48 hours, FIG. 25", "description": "Soybean seeds (Pioneer 9oM80) were plated in petriplates on moist germination paper soaked with 5 ml of treatment solution containing either water or Soybean LCO, Pea CO and CO plus fatty acids. Seedling radicles were isolated after 48 hours and measured for their length."}, "[3]": {"system": "Green Mung, Lab Lab, Red Lentil and Red Clover seeds", "assay": "Seed germination in multiple crops, overall", "conditions": "four crops; dark, 22° C.; FIG. 23", "description": "Similar to the seed germination experiment mentioned above, seeds of different crops were placed on moist filter paper in petriplates containing 5 ml liquid in each. Petriplates with seeds were then kept in the dark at 22° C."}, "[4]": {"system": "tomato Var. Royal Mounty seeds", "assay": "Tomato seedling root growth in petriplates (Example 11)", "conditions": "22° C.; 5 days in dark; FIG. 24", "description": "In petriplate seed germination process, tomato Var. Royal Mounty seeds ware placed on moist filter paper soaked with 5 ml treatment solution. At 22° C. and after 5 days in dark, tomato seedling roots were measured for growth by WinRhizo system."}, "Corn seeds": {"system": "Corn seeds", "assay": "Corn seed application (greenhouse)", "conditions": "seed treatment; CO 10^−8 M, LCO 10^−8 M alone or LCO 10^−9 with CO 10^−8; harvested 10 days after planting; FIG. 28", "description": "Corn seeds were treated with various combinations of Pea CO (10^−8 M) and Pea LCO (10^−8, 10^−9 M). Seeds were planted in greenhouse plastic pots containing 1:1 sand:perlite mixture. Seedlings were harvested 10 days after planting, washed clean and then dried in an oven at 60 C for 48 hr."}, "[5]": {"system": "Common vetch (Vicia sativa) seeds", "assay": "Common vetch seed germination and root length", "conditions": "FIG. 21", "description": "Common vetch seeds were plated in petriplates containing 5 ml of treatment solutions on filter paper. Seed germination at 22° C. was counted after 24 h and seedling root length was measured at day 5 with WinRhizo system."}, "corn [6]": {"system": "corn", "assay": "Corn field trials, seed application, grain yield"}, "[7]": {"system": "wheat seeds (spring wheat)", "assay": "Wheat seed germination and root length in petriplates (Example 8)", "conditions": "5 days after plating; FIG. 20", "description": "Corn and wheat seeds were plated in petriplates containing 5 ml of treatment solution on a filter paper. Corn seeds were placed on moist filter paper for germination. Similarly, wheat seeds (spring wheat) were placed in petriplates. […] Roots were harvested and their length measured by WinRhizo system."}, "[8]": {"system": "Hybrid corn seeds (92L90)", "assay": "Corn seed treatment (greenhouse, two trials)", "conditions": "3 fl oz/100 lbs of seed; for dry weight increase over LCO: 10^-8 M", "description": "Two seed treatment experiments using only Pea LCO, Pea CO and the CO mixtures obtained from chitosan by enzymatic process (structurally distinct from the Pea CO, and also referred to in the examples as the “China CO”) were performed in greenhouse. Hybrid corn seeds (92L90, Peterson Farm, USA) were treated with treatment solution (10^-8 M) at the rate of 3 fl oz/100 lbs of seed. Seeds were planted in plastic pots containing 1:1 Sand:Perlite mixture. Seeds were allowed to grow for about 3-4 weeks and then they were harvested and their dry weight measured."}}}
{"smiles": "CC(=O)NC1C(O)OC(CO)C(OC2OC(CO)C(OC3OC(CO)C(OC4OC(CO)C(OC5OC(CO)C(O)C(O)C5N)C(O)C4NC(C)=O)C(O)C3NC(C)=O)C(O)C2NC(C)=O)C1O", "note": "(centres unmarked) [Pea CO]", "values": [{"measurement": "YIELD, Response Increase", "setting": "corn [1]", "value": "4.8 % of Control"}, {"measurement": "CO mean yield better than foliar LCO", "setting": "corn [1]; CO minus LCO", "value": 5.0, "unit": "bu/A"}, {"measurement": "higher yield increase than foliar LCO", "setting": "corn [1]; CO minus LCO", "value": 2.6, "unit": "%"}, {"measurement": "trials with a positive response, better than foliar LCO", "setting": "corn [1]; CO minus LCO", "value": 18.8, "unit": "%"}, {"measurement": "yield enhancement as a foliar treatment (conclusion)", "setting": "corn [1]; CO versus LCO", "value": "at least twice better"}, {"measurement": "YIELD, Mean (N = 16)", "setting": "corn [1]; four ounces per acre with glyphosate", "value": 201.8, "unit": "bu/A"}, {"measurement": "YIELD, Response", "setting": "corn [1]; over Control", "value": 9.2, "unit": "bu/A"}, {"measurement": "Positive Yield Response", "setting": "corn [1]; percent of the 16 trials", "value": 93.8, "unit": "%"}, {"measurement": "more plant fresh weight increase over LCO", "setting": "Cotton plants", "value": 1.14, "unit": "%"}, {"measurement": "plant fresh weights over control", "setting": "Cotton plants", "value": "significantly increased"}, {"measurement": "seedling radicle length", "setting": "[2]", "value": "less effective"}, {"measurement": "overall seed germination compared to Pea LCO", "setting": "[3]", "value": "better than Pea LCO"}, {"measurement": "average seedling root length compared to LCO", "setting": "[4]", "value": "better than LCO but it was not significantly better"}, {"measurement": "tomato seedling root length as compared to water control", "setting": "[4]", "value": "increased root length"}, {"measurement": "corn seedling dry weight", "setting": "Corn seeds", "value": "increased corn seedling dry weight"}, {"measurement": "early seed germination", "setting": "[5]; 22° C., counted after 24 h", "value": "induced early seed germination"}, {"measurement": "more germination over control and LCO", "setting": "[5]; one day after plating", "value": 25, "unit": "%"}, {"measurement": "YIELD, Response Increase", "setting": "corn [6]", "value": "3.6 % of Control"}, {"measurement": "YIELD, Mean (N = 10)", "setting": "corn [6]; 1×10^−8 molar, 1 μg/acre, 3 fl oz per 50 pounds of seed", "value": 188.0, "unit": "bu/A"}, {"measurement": "less positive yield responses than LCO", "setting": "corn [6]; amongst the ten trials", "value": 10.0, "unit": "%"}, {"measurement": "CO mean yield less than LCO", "setting": "corn [6]; less", "value": 4.6, "unit": "bu/A"}, {"measurement": "less yield increase above the Control than LCO", "setting": "corn [6]; less", "value": 2.5, "unit": "%"}, {"measurement": "YIELD, Response", "setting": "corn [6]; over Control", "value": 6.5, "unit": "bu/A"}, {"measurement": "Positive Yield Response", "setting": "corn [6]; percent of the ten trials", "value": 80.0, "unit": "%"}, {"measurement": "increase in root length in wheat", "setting": "[7]", "value": "not statistically significant but consistently greater"}, {"measurement": "wheat root length, CO compared to LCO", "setting": "[7]", "value": "outperformed LCO"}, {"measurement": "dry weight increase over LCO", "setting": "[8]; first trial, FIG. 10", "value": 11.84, "unit": "%"}, {"measurement": "dry weight increase over LCO", "setting": "[8]; second trial, FIG. 11", "value": 12.63, "unit": "%"}, {"measurement": "shoot, root and total biomass increase over LCO", "setting": "[8]; treatment solution 10^-8 M, 3-4 weeks, both experiments", "value": "greater"}]}
